The values below come from patent US9115159B2, “Phosphate compounds, a process for their preparation and pharmaceutical compositions containing them” (LES LABORATOIRES SERVIER, priority 2013, dated 2015).

Data set [1] is described as follows: Solubility in water. The class given is physicochemical. Here is the method: The solubility of compounds of formula (I) in water was measured and compared with that of compounds of formula (I′).
More specifically, 4-[{[3-(6-{[(3S)-3-(morpholin-4-ylmethyl)-3,4-dihydroisoquinolin-2(1H)-yl]carbonyl}-1,3-benzodioxol-5-yl)-5,6,7,8-tetrahydroindolizin-1-yl]carbonyl}-(phenyl)amino]phenyl disodium phosphate (also referred to as the compound of Example 1) was tested and compared to N-(4-hydroxyphenyl)-3-{6-[((3S)-3-(4-morpholinylmethyl)-3,4-dihydro-2(1H)-isoquinolinyl)carbonyl]-1,3-benzodioxol-5-yl}-N-phenyl-5,6,7,8-tetrahydro-1-indolizine carboxamide (also referred to as the drug from Example 1).
(§1) The solubilities of the compounds were also measured in a medium buffered to physiological pH (cf. Table 3).

Data set [2] in a line: Solubility in aqueous medium buffered to physiological pH (phosphate 0.33M, pH 7.4). The note with it: phosphate 0.33M, pH = 7.4. The class given is physicochemical. Here is the method: as §1
A short description of data set [3]: Pharmacokinetic profile / in vivo conversion after oral administration to SCID mice (plasma, LC-MS/MS). Also noted: species or system female SCID mice. The note with it: female, mouse, po; for Cmax: read-out: Cmax, compound measured: Drug from Example 1; for AUC(0-t): read-out: AUCt, compound measured: Drug from Example 1; for Tmax: read-out: Tmax, compound measured: Drug from Example 1. In short, it runs like this:
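Female SCID mice were gavaged with phosphate prodrug in EtOH/PEG300/water (10/40/50) at 3 or 25 mg/kg, or in aqueous media (1 mM Na2CO3, water, or 1M Na2CO3) at 3–100 mg/kg. Plasma prodrug and hydroxylated drug were measured by TFC-LC-MS/MS over 0.25–24 h. Non-compartmental analysis used mean concentrations.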

A short description of data set [4]: In vitro test on human Caco-2 cells, cellular transport A to B. The class given is in vitro ADME. The note with it: human, Caco-2, drug incubated and measured, A to B, 1 or 3 μM, read-out: Papp, the drug after incubation of the drug. In short, it runs like this:
(§2)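 Apical-to-basolateral transport, prodrug or drug dosed apically at 1 or 3 μM in duplicate for 120 minutes. Apical samples at 0 and 120 min and basolateral samples at 120 min quantified by LC-MS/MS (LOQ 2 ng/mL) for prodrug and drug. Papp, predicted human Fabs and percent recovery calculated.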
(In general: Passage across Caco-2 layers is used to estimate intestinal permeability.)

In data set [5] the test system is human Caco-2 cells. The data set is described as above. The class given is in vitro ADME. The note with it: drug incubated and measured, 120 minutes. The method in brief:
as §2

Setting [6] is: Drug from Example 1 administered 3 mg/kg p.o., lipid formulation.
Setting [7] is: Drug from Example 1 administered 25 mg/kg p.o., lipid formulation.
The mark [8] stands for this setting: Drug from Example 1 administered 30 mg/kg p.o., lipid formulation.
Where [9] appears, read: Drug from Example 1 administered 100 mg/kg p.o., lipid formulation.

Where “and” joins values, the source holds several entries; their conditions need not be identical. Identical values can stand only once. Like-named read-outs stand apart in the source and are kept apart here.

As for `O=C(c1cc(-c2cc3c(cc2C(=O)N2Cc4ccccc4C[C@H]2CN2CCOCC2)OCO3)n2c1CCCC2)N(c1ccccc1)c1ccc(O)cc1` [Drug from Example 1, N-(4-hydroxyphenyl)-3-{6-[((3S)-3-(4-morpholinylmethyl)-3,4-dihydro-2(1H)-isoquinolinyl)carbonyl]-1,3-benzodioxol-5-yl}-N-phenyl-5,6,7,8-tetrahydro-1-indolizine carboxamide], the solubility in data set [1] was 40 µg/mL and 56.2 µM. Also, the “Solubility at 10 μM” value in data set [2] (10 μM) was “Insoluble”. In addition, the “Solubility at 20 μM” value in data set [2] (20 μM) is reported as “Insoluble”. In addition, in data set [2] (50 μM), the “Solubility at 50 μM” value was “Insoluble”. For the same compound, the “Solubility at 100 μM” value in data set [2] (100 μM) is listed as “Insoluble”. Also, the Cmax in data set [3] (Drug from Example 1 administered 3 mg/kg p.o., lipid formulation (ethanol/PEG 300/water 10/40/50)) was found to be 295 ng/mL; in data set [3] (setting [7]), 5070 ng/mL; in data set [3] (setting [8]), 8580 ng/mL; in data set [3] (setting [9]), 25900 ng/mL. Also, the AUC(0-t) in data set [3] (setting [6]) amounted to 225 ng·h/mL; in data set [3] (setting [7]), 20400 ng·h/mL; in data set [3] (setting [8]) it was 24200 ng·h/mL; in data set [3] (setting [9]) it was 148000 ng·h/mL. Also, the time to peak (Tmax) was found to be 15 min in data set [3] (setting [6]), 120 min in data set [3] (setting [7]), 60 min in data set [3] (setting [8]) and 30 min in data set [3] (setting [9]). The Papp A→B at 120 min in data set [4] came out at 0.65 ×10⁻⁶ cm/s. Also, the “Yield (experiment yield), the drug after incubation of the drug” value in data set [5] is given as “Yield (%) = 37”. The “Fabs (predicted absorbed fraction in humans), the drug after incubation of the drug” value in data set [5] (A to B, 1 or 3 μM) was “Fabs (%) = 67”.

What is called solubility is how much of the substance goes into solution per volume. A higher solubility goes with much dissolved substance. As usually defined, the Cmax is the highest concentration seen after dosing. The Tmax is the time at which the peak concentration occurs.
